From publication PMC7658347, “The cryo-EM structure of a γ-TuSC elucidates architecture and regulation of minimal microtubule nucleation systems” (Nature Communications, 2020) come the findings set out here.

The target of the experiment is T1, C. albicans γ-TuSC (γ-tubulin small complex; Spc97, Spc98, γ-tubulin/Tub4) (Candida albicans, UniProt O93807).
T1 construct: full-length, codon-optimized genes, expressed in SF21 insect cells; heterotetramer; N-terminal 91 (Spc97) and 149 (Spc98) residues not resolved; with Spindle pole body component (Spc97); Spindle pole body component (Spc98)
T1 sequence (O93807 1-502): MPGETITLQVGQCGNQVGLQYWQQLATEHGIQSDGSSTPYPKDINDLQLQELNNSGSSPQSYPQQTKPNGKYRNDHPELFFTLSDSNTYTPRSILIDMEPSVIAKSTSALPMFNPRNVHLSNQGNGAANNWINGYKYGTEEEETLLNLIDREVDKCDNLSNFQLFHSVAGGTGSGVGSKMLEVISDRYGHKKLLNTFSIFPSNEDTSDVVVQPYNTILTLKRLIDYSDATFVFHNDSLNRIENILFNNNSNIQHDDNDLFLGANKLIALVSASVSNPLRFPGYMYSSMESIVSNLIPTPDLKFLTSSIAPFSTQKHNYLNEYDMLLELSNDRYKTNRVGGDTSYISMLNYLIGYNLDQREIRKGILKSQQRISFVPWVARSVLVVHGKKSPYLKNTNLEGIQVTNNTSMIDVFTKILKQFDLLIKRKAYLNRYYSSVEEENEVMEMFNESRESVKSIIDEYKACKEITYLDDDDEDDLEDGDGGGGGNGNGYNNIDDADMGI
T1 sequence (Q59PZ2 1-871 partner): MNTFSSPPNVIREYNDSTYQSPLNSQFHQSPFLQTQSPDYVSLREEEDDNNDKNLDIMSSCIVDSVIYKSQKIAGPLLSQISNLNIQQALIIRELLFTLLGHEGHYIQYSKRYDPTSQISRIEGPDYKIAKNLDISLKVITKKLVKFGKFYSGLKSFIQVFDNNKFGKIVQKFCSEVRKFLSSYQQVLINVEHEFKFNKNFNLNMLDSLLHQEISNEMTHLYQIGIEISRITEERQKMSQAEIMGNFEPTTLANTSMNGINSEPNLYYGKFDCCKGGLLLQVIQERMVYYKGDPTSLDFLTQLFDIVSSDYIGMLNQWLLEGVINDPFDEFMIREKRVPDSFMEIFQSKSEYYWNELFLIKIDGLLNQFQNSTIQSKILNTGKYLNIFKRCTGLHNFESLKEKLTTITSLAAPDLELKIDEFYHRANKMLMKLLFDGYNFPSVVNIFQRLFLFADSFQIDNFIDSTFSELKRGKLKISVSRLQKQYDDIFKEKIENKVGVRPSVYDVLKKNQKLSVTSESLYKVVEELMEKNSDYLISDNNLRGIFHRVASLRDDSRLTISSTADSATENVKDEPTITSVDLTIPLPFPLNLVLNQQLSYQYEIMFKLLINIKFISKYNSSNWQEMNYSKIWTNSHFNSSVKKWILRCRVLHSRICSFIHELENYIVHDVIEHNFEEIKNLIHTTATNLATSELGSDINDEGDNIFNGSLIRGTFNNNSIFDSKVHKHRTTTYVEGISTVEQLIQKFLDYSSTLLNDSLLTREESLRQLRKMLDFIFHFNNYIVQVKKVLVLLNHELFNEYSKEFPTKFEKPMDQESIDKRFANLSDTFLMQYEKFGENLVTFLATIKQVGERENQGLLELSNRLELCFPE
T1 sequence (A0A1D8PS42 1-785 partner): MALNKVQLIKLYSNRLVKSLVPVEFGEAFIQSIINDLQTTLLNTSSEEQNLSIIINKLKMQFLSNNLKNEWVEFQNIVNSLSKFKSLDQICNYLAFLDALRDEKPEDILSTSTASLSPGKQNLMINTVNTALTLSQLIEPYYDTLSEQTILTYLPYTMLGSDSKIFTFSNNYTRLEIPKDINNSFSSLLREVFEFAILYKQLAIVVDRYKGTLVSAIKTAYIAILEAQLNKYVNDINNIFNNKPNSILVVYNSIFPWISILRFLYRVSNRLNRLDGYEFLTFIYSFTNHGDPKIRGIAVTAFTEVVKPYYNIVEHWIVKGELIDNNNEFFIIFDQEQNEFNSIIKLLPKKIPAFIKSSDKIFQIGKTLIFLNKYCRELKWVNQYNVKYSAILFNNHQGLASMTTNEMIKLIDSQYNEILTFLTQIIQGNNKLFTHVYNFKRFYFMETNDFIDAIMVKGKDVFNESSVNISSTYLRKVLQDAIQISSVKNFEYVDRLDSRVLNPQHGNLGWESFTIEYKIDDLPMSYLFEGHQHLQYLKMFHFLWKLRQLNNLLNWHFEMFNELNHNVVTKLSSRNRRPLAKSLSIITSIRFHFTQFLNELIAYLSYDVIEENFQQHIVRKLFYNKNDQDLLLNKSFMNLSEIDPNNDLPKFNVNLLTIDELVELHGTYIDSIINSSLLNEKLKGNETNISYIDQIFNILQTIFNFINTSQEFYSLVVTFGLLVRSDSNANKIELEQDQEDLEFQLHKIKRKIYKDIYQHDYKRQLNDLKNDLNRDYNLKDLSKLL
The experiment in a line: cryo-EM structure ([…] Å). Particulars: co-purified nucleotide, none added; nucleotide-binding pocket of γ-tubulin; assigned from density lacking γ-phosphate; Table 1 lists 0 ligands in the refined model.

For `Nc1nc2c(ncn2[C@@H]2O[C@H](COP(=O)(O)OP(=O)(O)O)[C@@H](O)[C@H]2O)c(=O)[nH]1` [GDP], the “cryo-EM structure (3.6 Å)” value was “Our cryo-EM density of the C. albicans γ-TuSC indicates binding of GDP, rather than GTP”.
